Measurements from patent publication US20210255167A1, “COMPOSITIONS AND METHODS FOR ASSESSING TOXICITY USING DYNAMIC BH3 PROFILING” (Dana-Farber Cancer Institute, Inc., priority 2015, published 2021).

Test system: adult mouse hepatocytes
Excerpt: In some aspects, methods provided herein relate to determining the toxicity of an agent in a sample of cells. In some embodiments, the toxicity of the agent can be determined by determining a value for delta percent priming. As used herein, “delta percent priming” refers to the extent to which an agent shifts a cell closer to the threshold of apoptosis. In some embodiments, normalized values of MOMP (e.g., percent BH3 domain peptide-induced MOMP, or “% MOMP”) are used to determine a value for delta percent priming. In such embodiments, the value for delta percent priming can be calculated using the equation:
Delta Percent Priming=(% MOMPTEST)−(% MOMPCONTROL),
where “% MOMPTEST” represents the value for percent BH3 domain peptide-induced MOMP determined in a test aliquot (cells contacted with the agent); and “% MOMPCONTROL” represents the value for percent BH3 domain peptide-induced MOMP determined in a control aliquot (cells not contacted with the agent).
Next, various drug compounds were tested to assess the extent of drug-induced increased cell death sensitivity in adult mouse hepatocytes. Freshly isolated adult mouse hepatocytes were treated with different drugs for 20 hours, and the loss of cytochrome c induced by a single concentration of the synthetic Bim BH3 peptide was subsequently assessed by immunofluorescence (FIGS. 5A-D). Increase in cell death sensitivity is indicated by loss of cytochrome c, which is quantified as an increase in apoptotic sensitivity (delta priming, FIG. 5E).

| SMILES | apoptotic sensitivity (delta priming) |
| --- | --- |
| CC1(C)CCC(c2ccc(Cl)cc2)=C(CN2CCN(c3ccc(C(=O)NS(=O)(=O)c4ccc(N[C@H](CCN5CCOCC5)CSc5ccccc5)c(S(=O)(=O)C(F)(F)F)c4)cc3)CC2)C1 [Navitoclax] | increase apoptotic sensitivity |
| COc1cccc2c1C(=O)c1c(O)c3c(c(O)c1C2=O)C[C@@](O)(C(=O)CO)C[C@@H]3O[C@H]1C[C@H](N)[C@H](O)[C@H](C)O1 [doxorubicin] | increase apoptotic sensitivity |
| C=CCNC1=C2C[C@@H](C)C[C@H](OC)[C@H](O)[C@@H](C)/C=C(\C)[C@H](OC(N)=O)[C@@H](OC)/C=C\C=C(/C)C(=O)NC(=CC1=O)C2=O [tanespimycin] | increase apoptotic sensitivity |
